Measured values taken from US12571052B2, “Immunomodulatory RNA” (THE TRUSTEES OF THE UNIVERSITY OF PENNSYLVANIA, priority 2017, dated 2026).
“Also recorded” adds a separate entry of the source.

Assays:
[1] = molecular target: T1, recombinant RIG-I (Homo sapiens, UniProt O95786); assay: RIG-I ATPase assay (ATP hydrolysis); type: biochemical; conditions: RNA added to recombinant RIG-I, equimolar amounts
T1 sequence (O95786 1-925): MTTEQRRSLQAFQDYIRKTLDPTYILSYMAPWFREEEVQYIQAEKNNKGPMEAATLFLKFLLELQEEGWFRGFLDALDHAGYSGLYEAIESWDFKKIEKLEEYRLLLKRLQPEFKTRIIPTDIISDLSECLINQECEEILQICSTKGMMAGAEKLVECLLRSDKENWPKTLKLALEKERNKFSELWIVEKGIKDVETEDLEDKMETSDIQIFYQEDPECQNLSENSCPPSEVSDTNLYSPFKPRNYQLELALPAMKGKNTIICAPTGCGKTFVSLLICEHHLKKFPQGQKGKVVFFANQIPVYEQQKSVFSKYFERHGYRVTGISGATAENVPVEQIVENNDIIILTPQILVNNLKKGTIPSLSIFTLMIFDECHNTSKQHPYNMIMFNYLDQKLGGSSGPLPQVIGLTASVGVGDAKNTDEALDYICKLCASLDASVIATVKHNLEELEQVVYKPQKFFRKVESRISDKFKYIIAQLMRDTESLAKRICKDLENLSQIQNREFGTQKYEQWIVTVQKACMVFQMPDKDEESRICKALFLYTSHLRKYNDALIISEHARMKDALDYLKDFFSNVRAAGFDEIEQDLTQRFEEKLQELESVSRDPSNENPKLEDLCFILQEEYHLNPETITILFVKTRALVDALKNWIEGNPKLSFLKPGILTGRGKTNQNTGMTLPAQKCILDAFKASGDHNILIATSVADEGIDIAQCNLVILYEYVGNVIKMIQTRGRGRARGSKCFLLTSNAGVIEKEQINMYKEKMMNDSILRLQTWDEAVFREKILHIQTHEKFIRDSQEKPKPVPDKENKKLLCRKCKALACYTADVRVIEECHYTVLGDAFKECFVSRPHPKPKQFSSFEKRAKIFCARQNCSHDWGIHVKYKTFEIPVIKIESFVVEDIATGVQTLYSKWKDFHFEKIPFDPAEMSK
Method: RIG-I ATPase Assays. RIG-I ATPase assays were performed as previously described (Devarkar et al. (2016) Proc. Natl. Acad. Sci. 113, 596-601). In brief, increasing amounts of RNA (10-60 nM) were added to a constant quantity of RIG-I (5 nM) in the presence of 1 mM ATP. ATP hydrolysis was measured with the EnzChek Phosphate Assay Kit (ThermoFisher) after 60-90 minutes at 37° C. ATP hydrolysis was then measured by absorbance of 360 nm compared to background. A 19-mer 5′triphosphate dsRNA (Invivogen) and DVG396 were used as positive controls and a 19-mer 5′OH dsRNA (Invivogen) and an in vitro transcribed 300 bp ssRNA stretch of GAPDH (GAPDH300) were used as negative controls.

[2] = system: 1833 breast cancer cells; assay: ISG expression in breast cancer cells after RNA transfection (qRT-PCR); type: cell-based, Human
Method: Gene Targeting and Expression. Gene knockdown by siRNA was completed using SMARTPool siRNAs (Thermo) and transfected using 20 nM siRNA and RNAiMax (Invitrogen) transfection reagent. For stable knockdowns, shRNAs were cloned into the pGIPZ vector and transduced by virus using pCMV-VSV-G and pHR8.2AR envelope and packaging vectors in HEK293T cells. Transduced cells were selected using 1-2 ug/ml of puromycin. Wild-type and K858A/K861A binding mutant of RIG-I was cloned into the pOZ-N vector. Transduced cells were then selected with IL-2 receptor magnetic beads and expression was confirmed by Western blot for FLAG, HA, and RIG-I. RIG-I restoration was functionally confirmed by RIG-I pathway activation in response to Sendai virus infection. SRP9 and SRP14 were transiently transfected with pGFH-9 (Addgene plasmid #39538) and pGFH-14c (Addgene plasmid #39541), both gifts from Katharina Strub. Gene knockout by CRISPR was accomplished using pSpCas9 (BB)-2A-GFP (PX458) (Addgene plasmid #48138). RIG-I was knocked out utilizing the protocol described (Ran et al. (2013) Nat. Protoc. 8, 2281-2308). In brief, two distinct guide RNAs cloned into the pSpCas9 (BB)-2A-GFP backbone were transiently transfected into breast cancer cells. After 48 hours, single cells were sorted into 96 well single cell clones based on highest GFP expression. Clones were confirmed to have no RIG-I expression by immunoblot and pooled. RIG-I KO in the pooled clones were functionally confirmed by RIG-I pathway activation in response to Sendai virus infection.
In Vitro Transcription. In vitro transcription was performed using of PCR amplified cDNA templates that contained Hepatitis Delta Virus Ribozyme to ensure homogenous 3′ ends of the transcripts of interest (Avis et al. (2012) Methods Mol. Biol. 941, 83-97). In vitro transcription was completed with the MEGAshortscript T7 Transcription Kit (ThermoFisher) according to manufacturer's instructions. RNA was DNase treated and phenol/chloroform purified. After thermocycling to ensure ribozyme cleavage, correct size transcripts were gel purified. […]

[3] = system: 1833 ISG-R breast cancer xenografts; assay: Intratumoral injection into subcutaneous 1833 xenografts; type: in vivo, athymic nude mice
Method: In Vivo Mouse Studies. For exosome injection studies, 1×10^6 1833 breast cancer cells were injected with Matrigel (Corning) into the flanks of 6-8 week old athymic nude mice and 10 μg of mono- or co-culture exosomes were directly injected into the tumors 3 times a week. For RNA injection studies, 50 ng of 7SL or GAPDH300 RNA encapsulated into RNAiMax liposomes were directly injected into the tumors 3 times a week. Subcutaneous tumor growth was measured by caliper. For lung colonization studies, 2×10^5 luciferase-labeled 4175 breast cancer cells were injected in the tail vein. Injections were confirmed by immediate imaging using a Xenogen IVIS 100 system. Serum was isolated from mice by cardiac puncture.

[4] = system: myeloid/dendritic cells in the spleen; assay: Spleen myeloid/dendritic cell activation after intravenous injection; type: in vivo, mice

RN7SL1: Human RN7SL1 (7SL, srpRNA) RNA, 5'ppp, in vitro transcribed or secreted unshielded in exosomes; SEQ ID NO: 2
RIG-I ATP helicase activity as measured by ATP hydrolysis [1]: directly binds recombinant RIG-I; also recorded: comparable to an equimolar amount of Sendai virus-derived RNA (DVG396) | ISG induction after transfection ([2]; 1833 cells, RIG-I wild type): induces ISGs in breast cancer cells specifically in a RIG-I-dependent manner | ISG induction after transfection ([2]; RIG-I KO cells with re-expression of WT RIG-I): restored antiviral signaling | ISG induction after transfection ([2]; alkaline phosphatase treatment prior to transfection): abolished ISG induction | tumor growth ([3]; 50 ng liposome-encapsulated RNA intratumorally 3 times a week, RIG-I WT tumors): enhance tumor growth in a RIG-I-dependent manner | tumor growth ([3]; 50 ng liposome-encapsulated RNA intratumorally, RIG-I KO tumors): no effect was observed | ISG expression in tumors ([3]; tumors expressing WT RIG-I, human specific primers): an increase in ISG expression | myeloid/dendritic cell maturation and activation (MHCII+ and CD86+) [4]: promote immune cell activation in the neutral immune environment of mouse spleens
